This is an account of results in patent US11874281B2, “Assays for detecting modified compounds” (Enzo Life Sciences, Inc., priority 2010, dated 2024).

The assay concerns the target human sphingosine kinase 1 (hSK1) (Homo sapiens, UniProt Q9NYA1). Briefly: sphingosine kinase 1 assay with fluoresceinated sphingosine, barium acetate/ethanol precipitation of fluoresceinated S1P, fluorescence readout. It is filed as biochemical. To be noted: 100 μM inhibitor; 4 μM sphingosine fluoresceine; 500 μM ATP; 1 h at 37° C. From the text: Sphingosine is phosphorylated at the non-polar end by the enzymes sphingosine kinase 1 and sphingosine kinase 2, to form sphingosine-1-phosphate (S1P). S1P is an important signaling molecule, and serves in particular as a major regulator of vascular and immune systems. See, e.g., Lloyd-Evans et al., Nat. Med. 14:1247-1255 (2008); Ryu et al., EMBO J. 25:5840-5851 (2006); Maceyka et al., J. Lipid Res. 50:S272-S276 (2009); Peterson et al., Proc. Natl. Acad. Sci. USA 105:20764-20769; and U.S. Pat. No. 6,730,480. Thus, the detection of S1P and the sphingosine kinases is important for the understanding of the various systems that S1P influences. Current methods for separating sphingosine from S1P generally use chromatographic, electrophoretic or spectrometric methods. See, e.g., Bandhuvula et al., Biochem. Biophys. Res. Commun. 380:366-370 (2009); Lee et al., Anal. Chem. 80:1620-1627 (2008); Jin et al., Arch. Pharm. […]
The S1P formed by the enzyme was then precipitated in the reaction mix by the addition of 5 μl of 1 M barium acetate+300 μL of 100% ethanol, followed by 30 min incubation on ice. […] The eluted fluoresceinated S1P was quantified by measuring intensity of fluorescence. Preliminary studies established that the two wash steps were sufficient to remove essentially the entire quantity of unprecipitated sphingosine fluorescein. […]

SMILES strings stand for the structures.

human sphingosine kinase 1 (hSK1), sequence (Q9NYA1 whole entry): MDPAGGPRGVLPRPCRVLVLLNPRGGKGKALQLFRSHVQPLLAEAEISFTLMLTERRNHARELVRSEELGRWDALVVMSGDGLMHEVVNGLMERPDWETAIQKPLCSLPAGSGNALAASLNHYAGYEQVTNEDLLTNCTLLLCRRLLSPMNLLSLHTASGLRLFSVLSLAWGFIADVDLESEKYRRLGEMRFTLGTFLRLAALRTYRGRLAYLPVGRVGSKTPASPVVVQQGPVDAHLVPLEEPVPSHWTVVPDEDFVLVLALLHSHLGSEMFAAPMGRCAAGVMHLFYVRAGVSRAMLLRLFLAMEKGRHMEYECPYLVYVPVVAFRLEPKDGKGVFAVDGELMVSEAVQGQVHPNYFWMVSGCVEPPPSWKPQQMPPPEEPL

In the case of `CCCCCCCCCCCCC/C=C/[C@@H](O)[C@@H](N)CO` [D/L sphingosine], the “inhibition of hSK1 (precipitation of the fluoresceinated product, FIG. 6)” value is recorded as “caused less precipitation of the fluoresceinated product”.

On to `CCCCCCCCCCCCC/C=C/[C@@H](O)[C@H](CO)N(C)C` [DMS, dimethylsphingosine], for which the “inhibition of hSK1 (precipitation of the fluoresceinated product, FIG. 6)” value was “caused less precipitation of the fluoresceinated product”.
